Data: patent publication US20100267561A1, “HERBICIDAL PYRIDAZINONE DERIVATIVES” (priority 2007, published 2010)
Where two headings read alike, the source gives them in different places.

Key:
Type in all cases: in vivo
corn (Zea mays) = test: Test A pre-/postemergence plant response; conditions: for Corn plant response rating (crop injury, 0 = no effect, 100 = complete kill) at 31 g/ha / Corn plant response rating (crop injury, 0 = no effect, 100 = complete kill) at 125 g/ha: Zea mays, 240 h
Procedure, shortened: (§1)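 Greenhouse pot test: loam–sand soil; pre- and postemergence sprays applied same day; post plants 2–10 cm, 1–2 leaves. Readout ~10 d, visual % injury vs untreated (0 = none, 100 = complete control).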

[1] = system: pigweed (Amaranthus retroflexus); test: Test A pre-/postemergence plant response; conditions: for pest or weed control at 31 g/ha / pest or weed control at 125 g/ha: Amaranthus retroflexus, 240 h, read-out: Plant response rating, Pigweed
Procedure, shortened: as §1

[2] = system: large crabgrass (Digitaria sanguinalis); test: Test A pre-/postemergence plant response; conditions: for pest or weed control at 31 g/ha / pest or weed control at 125 g/ha: Digitaria sanguinalis, 240 h, read-out: Plant response rating, Crabgrass, Large
Procedure, shortened: as §1

[3] = system: wheat (Triticum aestivum); test: Test A pre-/postemergence plant response; conditions: for plant injury at 31 g/ha / plant injury at 125 g/ha: Triticum aestivum, 240 h, read-out: Plant response rating, Wheat
Procedure, shortened: as §1

[4] = system: barnyardgrass (Echinochloa crus-galli); test: Test A pre-/postemergence plant response; conditions: for pest or weed control at 31 g/ha / pest or weed control at 125 g/ha: Echinochloa crus-galli, 240 h, read-out: Plant response rating, Barnyardgrass
Procedure, shortened: as §1

[5] = system: canarygrass (Phalaris minor); test: Test B postemergence plant response; conditions: for Plant response rating, Canarygrass: Postemergence
Protocol: (§2) At the same time, plants selected from these crop and weed species and also winter barley (Hordeum vulgare), canarygrass (Phalaris minor), chickweed (Stellaria media) and windgrass (Apera spica-venti) were treated with postemergence applications of some of the test chemicals formulated in the same manner. Plants ranged in height from 2 to 18 cm (1- to 4-leaf stage) for postemergence treatments.
(§3) Plant species in the flooded paddy test consisted of rice (Oryza sativa), umbrella sedge (Cyperus difformis), ducksalad (Heteranthera limosa) and barnyardgrass (Echinochloa crus-galli) grown to the 2-leaf stage for testing. At time of treatment, test pots were flooded to 3 cm above the soil surface, treated by application of test compounds directly to the paddy water, and then maintained at that water depth for the duration of the test. Treated plants and controls were maintained in a greenhouse for 13 to 15 days, after which time all species were compared to controls and visually evaluated. Plant response ratings, summarized in Table B, are based on a scale of 0 to 100 where 0 is no effect and 100 is complete control. A dash (-) response means no test result.

[6] = system: windgrass (Apera spica-venti); test: Test B postemergence plant response; conditions: for Windgrass plant response rating: postemergence, 0-100 scale; for Plant response rating, Windgrass: Postemergence
Protocol: as §2, §3

[7] = system: winter barley (Hordeum vulgare); test: Test B postemergence plant response; conditions: for Plant response rating, Barley: Postemergence, scale 0 to 100, 0 no effect, 100 complete control
Protocol: as §2, §3

[8] = system: chickweed (Stellaria media); test: Test B postemergence plant response; conditions: for Plant response rating, Chickweed: Postemergence
Protocol: as §2, §3

[9] = system: velvetleaf (Abutilon theophrasti); test: Test A pre-/postemergence plant response
Procedure, shortened: as §1

[10] = system: morningglory (Ipomoea coccinea); test: Test A pre-/postemergence plant response
Procedure, shortened: as §1

rice (Oryza sativa) = test: Test B flooded paddy test plant response
Procedure, shortened: (§4)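 Step one: raise plants to 2 leaves. Step two: flood pots 3 cm over the soil and apply compound into the water, keeping this depth. Step three: after 13–15 greenhouse days, score visually versus controls, 0–100, where 100 means complete control.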

[11] = system: barnyardgrass (Echinochloa crus-galli); test: Test B flooded paddy test plant response
Procedure, shortened: as §4

[12] = system: ducksalad (Heteranthera limosa); test: Test B flooded paddy test plant response
Procedure, shortened: as §4

[13] = system: umbrella sedge (Cyperus difformis); test: Test B flooded paddy test plant response
Procedure, shortened: as §4

[14] = post-emergence, Postemergence, 31 g ai/ha, 0 to 100 scale (0 no effect, 100 complete control)
[15] = post-emergence, Postemergence, 125 g ai/ha, 0 to 100 scale, 0 no effect, 100 complete control
[16] = pre-emergence, Preemergence, 31 g ai/ha, 0 to 100 scale, 0 is no effect, 100 is complete control
[17] = pre-emergence, Preemergence, 125 g ai/ha, 0 to 100 scale (0 no effect, 100 complete control)
[18] = 8 g ai/ha, postemergence, 0-100 scale
[19] = 62 g ai/ha, scale 0 to 100, 0 no effect, 100 complete control
[20] = Postemergence, 31 g ai/ha, 0 to 100 scale (0 no effect, 100 complete control)
[21] = Postemergence, 125 g ai/ha, 0 to 100 scale, 0 no effect, 100 complete control
[22] = Preemergence, 31 g ai/ha, 0 to 100 scale, 0 is no effect, 100 is complete control
[23] = Preemergence, 125 g ai/ha, 0 to 100 scale (0 no effect, 100 complete control)
[24] = Flood (flooded paddy test), 62 g ai/ha, scale 0 to 100, 0 no effect, 100 complete control
[25] = Flood (flooded paddy test), 125 g ai/ha, scale 0 to 100, 0 no effect, 100 complete control
[26] = Flood (flooded paddy test), 250 g ai/ha, scale 0 to 100, 0 no effect, 100 complete control
[27] = Flood, 31 g ai/ha, scale 0 to 100

## Cc1cc(-c2ccc(Br)cc2)nn1-c1c(O)cn[nH]c1=O [Compound 78, 4-[3-(4-bromophenyl)-5-methyl-1H-pyrazol-1-yl]-5-hydroxy-3(2H)-pyridazinone]
Corn (Zea mays); [14]
  Corn plant response rating (crop injury, 0 = no effect, 100 = complete kill) at 31 g/ha: 60%
Corn (Zea mays); [15]
  Corn plant response rating (crop injury, 0 = no effect, 100 = complete kill) at 125 g/ha: 100%
Corn (Zea mays); [16]
  Corn plant response rating (crop injury, 0 = no effect, 100 = complete kill) at 31 g/ha: 0%
Corn (Zea mays); [17]
  Corn plant response rating (crop injury, 0 = no effect, 100 = complete kill) at 125 g/ha: 90%
[1]; [14]
  pest or weed control at 31 g/ha: 0%
[1]; [15]
  pest or weed control at 125 g/ha: 0%
[1]; [16]
  pest or weed control at 31 g/ha: 0%
[1]; [17]
  pest or weed control at 125 g/ha: 0%
[2]; [14]
  pest or weed control at 31 g/ha: 80%
[2]; [15]
  pest or weed control at 125 g/ha: 100%
[2]; [16]
  pest or weed control at 31 g/ha: 10%
[2]; [17]
  pest or weed control at 125 g/ha: 100%
[3]; [14]
  plant injury at 31 g/ha: 70%
[3]; [15]
  plant injury at 125 g/ha: 90%
[3]; [16]
  plant injury at 31 g/ha: 0%
[3]; [17]
  plant injury at 125 g/ha: 90%
[4]; [14]
  pest or weed control at 31 g/ha: 90%
[4]; [15]
  pest or weed control at 125 g/ha: 100%
[4]; [16]
  pest or weed control at 31 g/ha: 0%
[4]; [17]
  pest or weed control at 125 g/ha: 100%
[5]; [18]
  Canarygrass plant response rating: 80
[5]; 16 g ai/ha, scale 0 to 100
  Plant response rating, Canarygrass: 90
[5]; 31 g ai/ha, scale 0 to 100
  Plant response rating, Canarygrass: 100
[5]; [19]
  Plant response rating, Canarygrass: 100
[6]; 8 g ai/ha
  Windgrass plant response rating: 40
[6]; 16 g ai/ha
  Windgrass plant response rating: 50
[6]; 31 g ai/ha, scale 0 to 100
  Plant response rating, Windgrass: 60
[6]; [19]
  Plant response rating, Windgrass: 80
[7]; [18]
  Barley plant response rating: 45
[7]; 16 g ai/ha
  Plant response rating, Barley: 90
[7]; 31 g ai/ha
  Plant response rating, Barley: 95
[7]; 62 g ai/ha
  Plant response rating, Barley: 95
[8]; [18]
  Chickweed plant response rating: 0
[8]; 16 g ai/ha, scale 0 to 100
  Plant response rating, Chickweed: 0
[8]; 31 g ai/ha, scale 0 to 100
  Plant response rating, Chickweed: 0
[8]; [19]
  Plant response rating, Chickweed: 0

## Cc1cc(-c2ccc(Cl)cc2)nn1-c1c(OS(=O)(=O)c2ccccc2[N+](=O)[O-])cnn(C)c1=O [Compound 51]
[9]; [20]
  Plant response rating, Velvetleaf: 0
[9]; [21]
  Plant response rating, Velvetleaf: 0
[9]; [22]
  Plant response rating, Velvetleaf: 0
[9]; [23]
  Plant response rating, Velvetleaf: 0
Corn (Zea mays); [20]
  Plant response rating, Corn: 20
Corn (Zea mays); [21]
  Plant response rating, Corn: 60
Corn (Zea mays); [22]
  Plant response rating, Corn: 20
Corn (Zea mays); [23]
  Plant response rating, Corn: 80
[1]; [20]
  Plant response rating, Pigweed: 0
[1]; [21]
  Plant response rating, Pigweed: 0
[1]; [23]
  Plant response rating, Pigweed: 0
[2]; [20]
  Plant response rating, Crabgrass, Large: 20
[2]; [21]
  Plant response rating, Crabgrass, Large: 70
[2]; [22]
  Plant response rating, Crabgrass, Large: 90
[2]; [23]
  Plant response rating, Crabgrass, Large: 100
[3]; [20]
  Plant response rating, Wheat: 0
[3]; [21]
  Plant response rating, Wheat: 40
[3]; [22]
  Plant response rating, Wheat: 40
[3]; [23]
  Plant response rating, Wheat: 80
[10]; [20]
  Plant response rating, Morningglory: 0
[10]; [21]
  Plant response rating, Morningglory: 0
[10]; [22]
  Plant response rating, Morningglory: 0
[10]; [23]
  Plant response rating, Morningglory: 0
[4]; [20]
  Plant response rating, Barnyardgrass: 20
[4]; [21]
  Plant response rating, Barnyardgrass: 80
[4]; [22]
  Plant response rating, Barnyardgrass: 80
[4]; [23]
  Plant response rating, Barnyardgrass: 100
Rice (Oryza sativa); [24]
  Plant response rating, Rice: 0
Rice (Oryza sativa); [25]
  Plant response rating, Rice: 0
Rice (Oryza sativa); [26]
  Plant response rating, Rice: 0
Rice (Oryza sativa); [27]
  Plant response rating, Rice: 0
[11]; [24]
  Plant response rating, Barnyardgrass: 0
[11]; [25]
  Plant response rating, Barnyardgrass: 10
[11]; [26]
  Plant response rating, Barnyardgrass: 30
[11]; [27]
  Plant response rating, Barnyardgrass: 0
[12]; [24]
  Plant response rating, Ducksalad: 0
[12]; [25]
  Plant response rating, Ducksalad: 0
[12]; [26]
  Plant response rating, Ducksalad: 0
[12]; [27]
  Plant response rating, Ducksalad: 0
[13]; [24]
  Plant response rating, Sedge, Umbrella: 40
[13]; [25]
  Plant response rating, Sedge, Umbrella: 60
[13]; [26]
  Plant response rating, Sedge, Umbrella: 70
[13]; [27]
  Plant response rating, Sedge, Umbrella: 0
